In patent US7125872B2, “β-sheet mimetics and use thereof as inhibitors of biologically active peptides or proteins” (Myriad Genetics, Inc., priority 1995, dated 2006):

Columns and labels:
[1] = target: T1, bovine trypsin (Bos taurus, UniProt P00760); assay: trypsin inhibition assay, IC50 (Example 4); format: biochemical
T1 construct: purchased Sigma
T1 sequence (P00760 24-246): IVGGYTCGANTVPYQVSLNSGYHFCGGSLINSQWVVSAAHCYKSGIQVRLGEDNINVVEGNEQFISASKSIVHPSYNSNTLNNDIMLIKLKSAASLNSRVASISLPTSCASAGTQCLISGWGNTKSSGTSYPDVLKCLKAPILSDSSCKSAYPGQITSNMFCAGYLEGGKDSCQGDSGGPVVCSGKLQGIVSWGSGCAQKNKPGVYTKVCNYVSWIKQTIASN
Procedure: All inhibition assays of this experiment were performed at room temperature in 96 well microplates using a Bio-Rad microplate reader (Model 3550). […] This solution (2.05 mM) served as the stock solution for all the inhibition assays. The hydrolysis of chromogenic substrates was monitored at 405 nm. The reaction progress curves were recorded by reading the plates typically 90 times with 30 seconds to 2 minute intervals. The initial rate were determined by unweighted nonlinear least-squares fitting to a first order reaction in GraFit. The determined initial velocities were then nonlinear least-square fitted against the concentrations of structure.
In the trypsin assay, pH 7.8 Tris (0.10 M Tris and 0.02 M CaCl2) was utilized as the buffer. BAPNA (from Sigma) was used at 1 mg/ml in 1% DMSO (v/v) deionized water solution as substrate. The same dilutions of structure (13b) were made as for Factor VII assay.

[2] = pharmacodynamic and pharmacokinetic study in rats; format: in vivo, male Sprague Dawley rats
Procedure: Specifically, a pharmacodynamic and pharmacokinetic study of structure (20b) was conducted in male Sprague Dawley rats. […] Groups of rats (n=3 or 4) were sacrificed and exsanguinated at 0.25, 0.5, 1, 2, 4 and 8 hours following dosing. Efficacy parameters, aPTT and TT, were measured for each plasma sample.

[3] = target: factor VII (Homo sapiens, UniProt P08709); assay: Factor VII inhibition assay, Ki (Example 5); format: biochemical
Sequence of factor VII (P08709 213-466 limits assumed): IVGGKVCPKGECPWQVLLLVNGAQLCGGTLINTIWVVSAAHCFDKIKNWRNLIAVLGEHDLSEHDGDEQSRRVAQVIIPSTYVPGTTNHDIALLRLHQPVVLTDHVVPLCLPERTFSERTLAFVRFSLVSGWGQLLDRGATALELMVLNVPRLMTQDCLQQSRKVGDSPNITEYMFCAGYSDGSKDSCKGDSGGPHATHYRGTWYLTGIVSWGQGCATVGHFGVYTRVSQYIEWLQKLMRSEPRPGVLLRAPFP
Sequence of factor VII (P08709 61-212 limits assumed): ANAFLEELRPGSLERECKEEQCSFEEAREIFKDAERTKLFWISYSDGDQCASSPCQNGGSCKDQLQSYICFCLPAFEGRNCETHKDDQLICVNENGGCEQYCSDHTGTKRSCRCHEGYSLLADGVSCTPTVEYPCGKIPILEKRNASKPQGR
Sequence of factor VII (P13726 33-295 partner): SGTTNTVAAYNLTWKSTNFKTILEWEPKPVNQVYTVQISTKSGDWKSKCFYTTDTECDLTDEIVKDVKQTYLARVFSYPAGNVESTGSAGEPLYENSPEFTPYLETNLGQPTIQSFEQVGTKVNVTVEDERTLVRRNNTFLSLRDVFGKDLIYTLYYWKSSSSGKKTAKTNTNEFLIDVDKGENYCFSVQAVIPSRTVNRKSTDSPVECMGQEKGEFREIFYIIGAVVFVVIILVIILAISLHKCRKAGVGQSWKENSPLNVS
Procedure: (§1) The reaction progress curves were recorded by reading the plates, typically 60 times with 30 second to 2 minute intervals. Initial rates were determined by unweighted nonlinear least-squares fitting to a first order reaction in GraFit (Erithacus Software Limited, London, England).
From this concentration point seven more sequential dilutions were made for the assay.

[4] = target: factor X (Bos taurus, UniProt P00743); assay: Factor X inhibition assay, Ki, bovine plasma enzyme; format: biochemical; conditions: bovine plasma (footnote e)
Sequence of factor X (P00743 234-492 limits assumed): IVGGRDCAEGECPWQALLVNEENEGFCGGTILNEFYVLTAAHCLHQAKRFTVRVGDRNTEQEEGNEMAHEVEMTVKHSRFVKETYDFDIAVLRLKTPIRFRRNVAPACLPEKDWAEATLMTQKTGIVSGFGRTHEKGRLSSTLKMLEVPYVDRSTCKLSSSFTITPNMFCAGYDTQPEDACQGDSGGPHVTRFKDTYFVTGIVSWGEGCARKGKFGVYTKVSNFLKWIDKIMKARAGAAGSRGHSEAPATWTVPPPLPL
Sequence of factor X (P00743 41-180 limits assumed): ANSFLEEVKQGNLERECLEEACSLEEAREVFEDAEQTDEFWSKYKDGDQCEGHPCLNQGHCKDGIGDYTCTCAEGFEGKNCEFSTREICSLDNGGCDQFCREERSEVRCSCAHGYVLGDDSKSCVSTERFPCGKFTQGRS
Procedure: All inhibition assays were performed at room temperature in 96 well microplates using Bio-Rad microplate reader (Model 3550). […] The hydrolysis of chromogenic subsstrates was monitored at 405 nm. The reaction progress curves were recorded by reading the plates, typically 60 times with 30 second to 2 minute intervals. Initial rates were determined by unweighted nonlinear least-squares fitting to a first order reaction in GraFit (Erithacus Software Limited, London, England).
Factor X: Buffer and substrate were the same as used for thrombin assay. A 1:100 dilution was made in the pH8.0 tris buffer to serve as the first point. Seven more dilutions from the first were made for the assay.

[5] = target: T2, tryptase; assay: tryptase inhibition assay, Ki; format: biochemical, human
T2 construct: rows headed: Ki tryptase; Ki Tryptase; tryptase; human lung; 2 (nM assay conc.)
Procedure: as §1
Tryptase: 0.1 M tris, 0.2 M NaCl, 0.1 mg/ml heparin, pH=8.0 was utilized as buffer. […] From this point seven more dilutions were made for the assay.

[6] = target: T3, Thrombin thrombomodulin complex (Bos taurus, UniProt P00735); assay: thrombin-thrombomodulin complex inhibition assay, Ki; format: biochemical; conditions: read-out: Ki T.T.C. (Thrombin thrombomodulin complex)
T3 construct: thrombin was preincubated with 4 n thrombomodulin for 20 minutes at room temperature
Procedure: Seven sequential dilutions were made from the first point for the assay.
The assay for thrombin-thromomodulin complex was conducted as for thrombin except that prior to the addition of inhibitor and substrate, thrombin was preincubated with 4 n thrombomodulin for 20 minutes at room temperature.

## N=C(N)NCCC[C@H](NC(=O)[C@@H]1CCN2CC[C@@](N)(Cc3ccccc3)C(=O)N12)C(=O)CCl [Structure (13b)]
[1]
  IC50: 16 ± 8 nM

## N=C(N)NCCC[C@H](NC(=O)[C@@H]1CCN2CC[C@@](N)(Cc3ccccc3)C(=O)N12)C(=O)c1nc2ccccc2s1 [Structure (20b)]
[2]; rat plasma, 4 mg/kg IV and 10 mg/kg PO, FIGS. 4A and 4B
  efficacy parameters aPTT and TT: in viva efficacy
[2]; rat, 10 mg/kg PO vs 4 mg/kg IV
  bioavailability of orally administered compound: approximately 27%

## N=C(N)NCCC[C@H](NC(=O)[C@@H]1CC[C@@H]2CC[C@](N)(Cc3ccccc3)C(=O)N21)C(=O)c1nc2ccccc2s1 [Structure (29a)]
[3]
  Ki: 1770 nM
[4]
  Ki: 4650 nM

## N=C(N)NCCC[C@H](NC(=O)[C@@H]1CC[C@@H]2CC[C@@](N)(Cc3ccccc3)C(=O)N21)C(=O)c1nc2ccccc2s1 [Structure (29b)]
[5]
  Ki: 9 nM
[6]
  Ki: 0.088 nM
